The nature of this series: Half life in human liver microsomes at 2 uM in presence of NADPH measured up to 40 mins. On the technique in general: Microsomes from liver hold many membrane-bound enzymes, among them those of drug oxidation.

For orientation: half-life means how long it takes for the measured level to halve. With `Fc1cc(Cl)c2[nH]cc(-c3ccc4ccccc4n3)c2c1`, the half-life at 40 min, 2 µM came to 23 min.

Values taken from ChEMBL document CHEMBL4825767, “Development of 2-(5,6,7-Trifluoro-1H-Indol-3-yl)-quinoline-5-carboxamide as a Potent, Selective, and Orally Available Inhibitor of Human Androgen Receptor Targeting Its Binding Function-3 for the Treatment of Castration-Resistant Prostate Cancer” (J Med Chem, 2021).
